These results are taken from patent US20030096433A1, “Homogeneous fluorescence assay” (Evotec Analytical Systems GmbH, priority 1999, published 2003).

Assay [1] concerns the target T1, p60src kinase (Homo sapiens, UniProt P12931).
T1 construct: purchased Upstate Biotechnology
The assay is described as follows: Protein tyrosine kinase pharmaceutical screening assay. It counts as biochemical. From the text: At first p60src (Upstate Biotechnology) phosphorylates the P2 substrate. The phos-phorylated and biotinylated P1 peptide is depicted as string of beads with attached “P” (phosphate) and triangle (biotin). The phosphorylated P2 competes with P1 for binding to the TRITC-labeled anti-phosphotyrosine antibody. In absence of enzyme activity all fluorescent antibodies are bound to carrier particles via P1 which means maximal binding to carrier particles and correspondingly minimum particle number. The phosphorylated P2 catches the fluorescent antibody preventing the formation of complexes. In that case no binding to carrier particles occurs and maximal particle number will be measured. Potential inhibitors are incubated with the enzyme before the enzyme reaction is started by adding a mixture of P2 and ATP.

Assay [2] has as its target anti-estradiol antibody. The assay is described as follows: 17-β-Estradiol competitive carrier particle assay (FCS). It counts as binding. As to conditions: for IC50: competition with TAMRA-estradiol, carrier particles 160 nm, FCS. From the text: The anti-estradiol-antibody was kindly provided by Dr. Schumacher (Institute of Fertility Research, Hamburg). 17-β-estradiol was obtained from Sigma. The protein A coated carrier particles (Protein A Ferrofluid™) with a mean diameter of 160 nm were from Immunicon. The optical set-up was the same as described in Example 1. […] Data evaluation and fitting procedures were the same as described in Example 1. The concentration of the conjugate (TAMRA-estradiol), the corresponding antibody and the carrier particles were kept constant in a specific series of experiments. […] The competitive assays were carried out as follows: The TAMRA conjugate of estradiol was mixed with the corresponding unlabelled molecules. […] Some experiments with JA190-estradiol conjugates were carried out in E-NAP buffer (200 mM sodium acetate, 150 mM NaCl, 0.2% BSA, pH 4). […] All estradiol conjugates, except for the BODIPY™-derivative, bound to an anti-estradiol antibody with similar affinity. […] All other conjugate-antibody interactions remained strong. […] TAMRA-estradiol was used for further assay evaluation.

The subject of assay [3] is anti-estradiol antibodies. The assay is described as follows: Estradiol competition assay (fluorescence intensity distribution analysis). Format: binding, Rabbit. As to conditions: 5 nM estradiol-Tamra, 0.18 nM carrier particles, 10 x 2 s.
Assay [4] addresses anti-theophylline antibody. To be noted: read-out: K2 (KD value for the competitor).

Several values for one entry are separate records, joined by “and”; a condition that tells them apart may be missing. Equal entries are not always repeated. Where two headings read alike, the source gives them in different places.

With `Nc1ncnc2c1ncn2[C@@H]1O[C@H](COP(=O)(O)OP(=O)(O)OP(=O)(O)O)[C@@H](O)[C@H]1O` [ATP], the Km in assay [1] (turn over velocity versus ATP concentration, FIG. 13, read-out: Michaelis constant KM) stood at 16.2 ± 4 µM. As for `Cc1cc(O)c2c(c1)C(=O)c1cc(O)cc(O)c1C2=O` [Emodin], in assay [1] (dose-response curves, FIG. 12), the IC50 lay within 50000 to 100000 nM. For `O=CN/C=C/c1cc(O)ccc1O` [Erbstatin], in assay [1] (dose-response curves, FIG. 12), the “Activity on p60src kinase (in words)” value was “inactive”. On to `CN(C)c1ccc2c(-c3ccc(C(=O)NCCOCCOCCNC(=O)CON=C4CC5C(CCC6(C)C(O)CCC56)c5ccc(O)cc54)cc3C(=O)[O-])c3ccc(N(C)C)cc3[o+]c2c1` (centres unmarked) [TAMRA-estradiol], for which, in assay [2] (simultaneous fit of gB and binding degree to equations 1 and 8, read-out: K1 (KD value for the conjugate)), the Kd is 0.0014 nM.

On to `C[C@]12CC[C@@H]3c4ccc(O)cc4CC[C@H]3[C@@H]1CC[C@@H]2O` [estradiol, 17-β-estradiol], for which the IC50 in assay [2] (read-out: IC50 using the binding degree) was 20 nM; in assay [2] (read-out: IC50 using the correlation amplitude gB), 3 nM; in assay [3] (FIG. 8A, read-out: IC50 from I1 (intensity of free conjugate), hyperbolic fit) it was 11.9 ± 2.4 nM; in assay [3] (FIG. 8B, read-out: IC50 from I2 (intensity of carrier particles with bound conjugate), hyperbolic fit) it was 13.3 nM and 13.2 nM; in assay [3] (FIG. 8C, read-out: IC50 from I2/(I1+I2), hyperbolic fit) it was 8.8 ± 1.1 nM. For `Cn1c(=O)c2[nH]cnc2n(C)c1=O` [theophylline, Theophylline], the Kd in assay [4] (fit with K1 fixed at 10^−11 M) turned out to be 0.083 nM; in assay [4] (simultaneous fit of gB and binding degree to equations 1 and 8, K1 variable), 0.0025 nM.
